Active and inactive are the calls of the source. No cut-off for these calls is given here.
Key:
[1] = Half life in Sprague-Dawley rat at 10 mg/kg, po measured up to 1280 mins by HPLC-MS/MS analysis; type: ADME, organism-based; conditions: in vivo
[2] = target: Sodium-dependent noradrenaline transporter (Homo sapiens) (UniProt P23975); test: Displacement of [3H]-Nisoxetine from NET (unknown origin)
[3] = MRT in ICR mouse at 3 mg/kg, iv measured up to 24 hrs by HPLC-MS/MS analysis; type: ADME, organism-based; conditions: in vivo
[4] = Drug concentration in ICR mouse brain at 3 mg/kg, iv measured at 2 hrs; type: ADME, organism-based; conditions: read-out: Ct
[5] = Cytotoxicity against African green monkey Vero cells assessed as cell growth inhibition at 120 uM measured after 48 hrs by CCK8 assay relative to control; type: cell-based; conditions: chlorocebus sabaeus
[6] = Drug concentration in ICR mouse brain at 10 mg/kg, po measured at 0.5 hrs by LC-MS/MS analysis; type: ADME, organism-based; conditions: read-out: Ct
[7] = target: 5-hydroxytryptamine receptor 1B (Homo sapiens) (UniProt P28222); test: Displacement of [3H]-GR125743 from 5HT1BR (unknown origin) expressed in CHO cells; type: cell-based
[8] = Tmax in ICR mouse at 10 mg/kg, po measured up to 24 hrs by HPLC-MS/MS analysis; type: ADME, organism-based; conditions: in vivo
[9] = […] in ICR mouse assessed as decrease in body weight at 30 mg/kg, po administered for 28 days; type: organism-based; conditions: in vivo, 672 h, time 28 day
[10] = Drug concentration in ICR mouse brain at 10 mg/kg, po measured at 2 hrs by LC-MS/MS analysis; type: ADME, organism-based; conditions: read-out: Ct
[11] = AUC (0 to t) in ICR mouse at 3 mg/kg, iv measured up to 24 hrs by HPLC-MS/MS analysis; type: ADME, organism-based; set-up: route intravenous, dose 3 mg/kg, time <=24; conditions: in vivo
[12] = Drug concentration in ICR mouse plasma at 3 mg/kg, iv measured at 0.5 hrs by LC-MS/MS analysis; type: ADME, organism-based
Mus musculus [13] = test: Antidepressant activity in ICR mouse assessed as decrease in immobility time at 30 mg/kg, ip measured after 26 mins by forced swim test; type: functional, organism-based
Mus musculus [14] = test: Antidepressant activity in ICR mouse aassessed as inhibition of apomorphine-induced climbing behaviour at 10 mg/kg, ip administered prior to APO challenge and measured after 30 mins; type: functional, organism-based
[15] = Cytotoxicity against human HEK293 cells assessed as cell growth inhibition at 60 uM measured after 48 hrs by CCK8 assay relative to control; type: cell-based
[16] = Drug concentration in ICR mouse brain at 3 mg/kg, iv measured at 0.5 hrs by LC-MS/MS analysis; type: ADME, organism-based; conditions: read-out: Ct
[17] = Ratio of drug concentration in brain to plasma in Sprague-Dawley rat at 3 mg/kg, iv measured at 80 mins by LC-MS/MS analysis; type: ADME, organism-based; conditions: read-out: BPR
[18] = Tmax in Sprague-Dawley rat at 10 mg/kg, po measured up to 1280 mins by HPLC-MS/MS analysis; type: ADME, organism-based; conditions: in vivo
[19] = […] in ICR mouse assessed as change in behaviour at 30 mg/kg, po administered for 28 days; type: organism-based; conditions: in vivo, 672 h, time 28 day
[20] = Half life in ICR mouse at 3 mg/kg, iv measured up to 24 hrs by HPLC-MS/MS analysis; type: ADME, organism-based; conditions: in vivo
[21] = Drug concentration in ICR mouse plasma at 3 mg/kg, iv measured at 2 hrs; type: ADME, organism-based
[22] = target: Glutamate NMDA receptor (Mus musculus) (UniProt P35436+Q91ZU9+Q03391+P35438+Q01097+Q01098+A2AIR5); test: Positive allosteric modulation of C57BL/6 mouse NMDA receptor assessed as fold change in compound potentiated NMDA-induced current relative to NMDA current alone in presence of saturating glutamate by patch-clamp method; type: tissue-based; conditions: Brain, filed as positive allosteric modulator
[23] = Effect on locomotor activity in ICR mouse assessed as hypolocomotion at 10 mg/kg, ip measured after 90 mins; type: ADME, organism-based; conditions: in vivo, 1.5 h
[24] = MRT in ICR mouse at 10 mg/kg, po measured up to 24 hrs by HPLC-MS/MS analysis; type: ADME, organism-based; conditions: in vivo
hERG (KCNH2) = hERG (KCNH2) (Homo sapiens, UniProt Q12809); test: Inhibition of human ERG expressed in CHO cells at 100 uM with holding potential at -80 to -60 mV for 500s followed by raise in potential at +30 mV for 2 sec and subsequent repolarization to -60 mV for 2 sec by whole-cell patch clamp method relative to control; type: cell-based; conditions: CHO cells expressing human ERG
[25] = Cytotoxicity against mouse L929 cells assessed as cell growth inhibition at 120 uM measured after 48 hrs by CCK8 assay relative to control; type: cell-based
[26] = target: D(2) dopamine receptor (Homo sapiens) (UniProt P14416); test: Displacement of [3H]-methylspiperone from human dopamine D2 receptor expressed in CHO cells incubated for 30 mins by liquid scintillation counting analysis; type: cell-based
[27] = Ratio of drug concentration in brain to plasma in ICR mouse at 10 mg/kg, po measured at 2 hrs by LC-MS/MS analysis; type: ADME, organism-based; conditions: read-out: BPR
[28] = Drug concentration in Sprague-Dawley rat brain at 3 mg/kg, iv measured at 80 mins by LC-MS/MS analysis; type: ADME, organism-based; conditions: read-out: Ct
[29] = Half life in ICR mouse at 10 mg/kg, po measured up to 24 hrs by HPLC-MS/MS analysis; type: ADME, organism-based; conditions: in vivo
[30] = Half life in Sprague-Dawley rat at 3 mg/kg, iv measured up to 1280 mins by HPLC-MS/MS analysis; type: ADME, organism-based; conditions: in vivo
[31] = Ratio of drug concentration in brain to plasma in Sprague-Dawley rat at 3 mg/kg, iv measured at 20 mins by LC-MS/MS analysis; type: ADME, organism-based; conditions: read-out: BPR
[32] = […] in ICR mouse assessed as body weight gain at 30 mg/kg, po administered for 28 days; type: organism-based; conditions: in vivo, 672 h, time 28 day
[33] = Oral bioavailability in Sprague-Dawley rat at 10 mg/kg measured up to 1280 mins by HPLC-MS/MS analysis; type: ADME, organism-based; conditions: in vivo
[34] = Acute toxicity in ip dosed ICR mouse assessed as lethal dose measured after 24 hrs; type: organism-based; conditions: in vivo
[35] = target: D(3) dopamine receptor (Homo sapiens) (UniProt P35462); test: Displacement of [3H]-methylspiperone from human dopamine D3 receptor expressed in CHO cells incubated for 60 mins by liquid scintillation counting analysis; type: cell-based
[36] = Oral bioavailability in ICR mouse at 10 mg/kg measured up to 24 hrs by HPLC-MS/MS analysis; type: ADME, organism-based; conditions: in vivo
[37] = Clearance in Sprague-Dawley rat at 3 mg/kg, iv measured up to 1280 mins by HPLC-MS/MS analysis; type: ADME, organism-based; conditions: in vivo
[38] = AUC (0 to t) in Sprague-Dawley rat at 3 mg/kg, iv measured up to 1280 mins by HPLC-MS/MS analysis; type: ADME, organism-based; set-up: route intravenous, dose 3 mg/kg, time <=1280; conditions: in vivo
[39] = Effect on locomotor activity in ICR mouse assessed as hyperlocomotion at 10 mg/kg, ip measured after 90 mins; type: ADME, organism-based; conditions: in vivo, 1.5 h
[40] = Cytotoxicity against human HEK293 cells assessed as cell growth inhibition at 120 uM measured after 48 hrs by CCK8 assay relative to control; type: cell-based

Chain of D(3) dopamine receptor (Homo sapiens) (P35462 whole entry): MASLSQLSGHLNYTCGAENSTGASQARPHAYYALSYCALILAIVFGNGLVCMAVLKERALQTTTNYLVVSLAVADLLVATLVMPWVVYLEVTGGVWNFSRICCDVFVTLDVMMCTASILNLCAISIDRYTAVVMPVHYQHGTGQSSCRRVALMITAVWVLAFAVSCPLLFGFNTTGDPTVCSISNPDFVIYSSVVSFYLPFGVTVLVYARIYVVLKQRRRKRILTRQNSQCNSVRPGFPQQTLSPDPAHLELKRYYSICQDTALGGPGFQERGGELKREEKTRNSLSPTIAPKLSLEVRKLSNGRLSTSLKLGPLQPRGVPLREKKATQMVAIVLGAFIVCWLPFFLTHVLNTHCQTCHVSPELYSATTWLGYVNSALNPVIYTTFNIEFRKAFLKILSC
Chain of D(2) dopamine receptor (Homo sapiens) (P14416 whole entry): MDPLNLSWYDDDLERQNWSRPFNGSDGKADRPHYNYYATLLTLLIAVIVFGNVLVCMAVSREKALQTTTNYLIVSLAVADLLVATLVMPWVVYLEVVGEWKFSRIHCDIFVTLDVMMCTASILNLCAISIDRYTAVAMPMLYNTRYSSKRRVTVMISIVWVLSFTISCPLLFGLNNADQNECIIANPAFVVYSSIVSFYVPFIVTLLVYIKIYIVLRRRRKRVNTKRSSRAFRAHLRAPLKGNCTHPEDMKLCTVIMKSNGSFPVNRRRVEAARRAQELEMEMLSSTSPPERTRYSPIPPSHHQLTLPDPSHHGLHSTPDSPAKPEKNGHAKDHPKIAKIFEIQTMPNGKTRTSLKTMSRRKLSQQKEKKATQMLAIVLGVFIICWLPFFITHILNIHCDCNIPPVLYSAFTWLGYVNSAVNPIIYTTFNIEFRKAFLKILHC
Chain of 5-hydroxytryptamine receptor 1B (Homo sapiens) (P28222 whole entry): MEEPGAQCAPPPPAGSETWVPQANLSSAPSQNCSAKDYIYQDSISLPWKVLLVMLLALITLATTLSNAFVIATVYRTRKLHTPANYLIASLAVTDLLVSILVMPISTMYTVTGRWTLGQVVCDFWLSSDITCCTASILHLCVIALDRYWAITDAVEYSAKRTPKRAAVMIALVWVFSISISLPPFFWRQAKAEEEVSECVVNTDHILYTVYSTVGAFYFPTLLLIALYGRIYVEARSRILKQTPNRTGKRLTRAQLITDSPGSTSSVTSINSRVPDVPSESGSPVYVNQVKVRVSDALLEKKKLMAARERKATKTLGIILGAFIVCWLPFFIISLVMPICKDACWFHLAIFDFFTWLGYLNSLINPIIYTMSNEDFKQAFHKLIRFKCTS
Chain of Sodium-dependent noradrenaline transporter (Homo sapiens) (P23975 whole entry): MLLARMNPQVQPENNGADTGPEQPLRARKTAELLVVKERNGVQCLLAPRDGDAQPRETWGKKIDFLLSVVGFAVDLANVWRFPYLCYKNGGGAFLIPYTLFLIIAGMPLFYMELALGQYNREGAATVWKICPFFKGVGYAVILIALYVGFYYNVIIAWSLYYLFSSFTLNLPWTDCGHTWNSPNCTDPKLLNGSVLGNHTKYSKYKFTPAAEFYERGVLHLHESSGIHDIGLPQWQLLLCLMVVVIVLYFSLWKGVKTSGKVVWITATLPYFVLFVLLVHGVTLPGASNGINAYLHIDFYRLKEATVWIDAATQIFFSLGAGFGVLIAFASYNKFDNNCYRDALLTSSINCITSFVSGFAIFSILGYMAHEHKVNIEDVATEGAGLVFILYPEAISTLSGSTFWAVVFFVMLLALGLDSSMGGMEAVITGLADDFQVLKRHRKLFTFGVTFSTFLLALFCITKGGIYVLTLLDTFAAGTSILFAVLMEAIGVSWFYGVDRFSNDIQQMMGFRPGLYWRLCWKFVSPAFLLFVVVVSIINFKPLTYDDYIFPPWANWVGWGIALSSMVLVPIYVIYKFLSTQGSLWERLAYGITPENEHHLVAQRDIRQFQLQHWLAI
Chain of hERG (KCNH2) (Q12809 whole entry): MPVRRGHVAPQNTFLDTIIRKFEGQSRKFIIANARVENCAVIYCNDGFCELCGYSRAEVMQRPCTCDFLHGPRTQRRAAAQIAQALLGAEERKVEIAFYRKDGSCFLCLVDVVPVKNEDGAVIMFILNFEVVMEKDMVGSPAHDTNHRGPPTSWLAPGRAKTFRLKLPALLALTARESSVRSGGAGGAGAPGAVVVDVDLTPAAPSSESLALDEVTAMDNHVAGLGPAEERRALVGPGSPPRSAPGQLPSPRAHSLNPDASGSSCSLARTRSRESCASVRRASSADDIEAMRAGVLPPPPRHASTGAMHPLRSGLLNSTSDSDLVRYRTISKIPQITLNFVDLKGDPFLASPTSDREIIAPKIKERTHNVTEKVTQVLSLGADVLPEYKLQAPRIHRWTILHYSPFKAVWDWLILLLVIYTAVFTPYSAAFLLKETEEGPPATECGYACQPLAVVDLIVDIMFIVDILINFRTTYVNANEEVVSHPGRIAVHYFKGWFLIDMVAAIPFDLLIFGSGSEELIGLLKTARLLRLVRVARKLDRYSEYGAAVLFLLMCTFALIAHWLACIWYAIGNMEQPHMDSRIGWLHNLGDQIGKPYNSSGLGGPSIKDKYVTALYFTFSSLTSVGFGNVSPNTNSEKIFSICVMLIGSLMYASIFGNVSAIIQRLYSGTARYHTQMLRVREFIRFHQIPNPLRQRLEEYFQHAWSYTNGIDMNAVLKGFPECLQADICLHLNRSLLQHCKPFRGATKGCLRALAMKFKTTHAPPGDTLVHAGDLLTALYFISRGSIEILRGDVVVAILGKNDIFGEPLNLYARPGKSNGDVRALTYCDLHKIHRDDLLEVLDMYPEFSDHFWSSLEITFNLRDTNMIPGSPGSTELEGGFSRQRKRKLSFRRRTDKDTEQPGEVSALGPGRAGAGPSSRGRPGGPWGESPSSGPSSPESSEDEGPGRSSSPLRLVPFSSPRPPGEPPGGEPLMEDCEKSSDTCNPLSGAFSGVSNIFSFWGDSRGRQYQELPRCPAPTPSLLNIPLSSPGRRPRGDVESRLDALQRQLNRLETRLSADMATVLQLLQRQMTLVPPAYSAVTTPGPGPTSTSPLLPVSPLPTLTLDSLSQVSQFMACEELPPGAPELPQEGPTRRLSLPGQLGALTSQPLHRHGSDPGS

SMILES: Cc1cc(C)n(Cc2ccc(C(=O)Nc3ccc(Cl)c(Cl)c3)s2)n1
- half-life [1]: 1.13 h
- inhibition [2]: inactive
- MRT [3]: 4 h
- concentration at 2 h [4]: 85.5 ng/mL
- inhibition at 48 h, 120 µM [5]: 22.6%
- concentration at 0.5 h [6]: 281 ng/mL
- inhibition [7]: inactive
- Tmax [8]: 0.5 h
- Activity [9]: Toxic
- concentration at 2 h [10]: 174 ng/mL
- AUC(0-t) at 24 h [11]: 1450 ng·h/mL
- concentration at 0.5 h [12]: 389 ng/mL
- Activity (Mus musculus [13]): Active
- Activity (Mus musculus [14]): inactive
- inhibition at 48 h, 60 µM [15]: -5.2%
- concentration at 0.5 h [16]: 160 ng/mL
- Kp at 1.333 h [17]: 1.5
- Tmax [18]: 0.555 h
- Activity [19]: Non-Toxic
- half-life [20]: 2.8 h
- concentration at 2 h [21]: 2940 ng/mL
- fold change (FC) [22]: 14.3
- Activity [23]: Non-Toxic
- MRT [24]: 4.2 h
- inhibition at 2 s, 100 µM (hERG (KCNH2)): 45%
- inhibition at 48 h, 120 µM [25]: -4.6%
- inhibition [26]: inactive
- Kp at 2 h [27]: 0.38
- concentration at 1.333 h [28]: 354 ng/g
- half-life [29]: 2.9 h
- t1/2 [30]: 1.7 h
- Kp at 20 min [31]: 1.5
- Activity [32]: Non-Toxic
- bioavailability [33]: 8.32%
- LD50 at 24 h [34]: 1500 mg/kg
- inhibition [35]: inactive
- bioavailability [36]: 63.3%
- CL [37]: 27.8 mL/min/kg
- AUC(0-t) at 1280 min [38]: 1820 ng·h/mL
- Activity [39]: Non-Toxic
- inhibition at 48 h, 120 µM [40]: -14%
